Patent US10829520B2, “Beta-hairpin peptidomimetics” (POLYPHOR AG, priority 2015, dated 2020)
Where a SMILES comes first, the peptide text is derived from it. Bridges are numbered along the chain shown (N, C = ends). [ ]: non-standard residue; d: D form. dDab = NCC[C@@H](N)C(=O)O; Orn = NCCC[C@H](N)C(=O)O; Dab = NCC[C@H](N)C(=O)O; Sar = CNCC(=O)O

How the values were obtained:
Format in all cases: cell-based
[1] = tested on: human red blood cells (hRBC); assay: Hemolysis of human red blood cells; conditions: red cells of human, 1 h, 100 μg/mL
Procedure, shortened: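 hRBC washed 3× PBS; 20% v/v, ~0.9×10^9 cells/mL final. Peptide 100 μg/mL, 1 h, 37° C., 300 rpm. Spin, supernatant diluted 8×, OD540. 0% = PBS + 0.001% acetic acid; 100% = 2.5% Triton X-100. % hemolysis = OD540 peptide/OD540 full lysis × 100.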

Escherichia coli 926415 = conditions: 926415
[2] = tested on: Escherichia coli ATCC 25922; conditions: ATCC 25922
Procedure, shortened: (§1)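 CLSI broth microdilution; MH-II (cation-adjusted) + 0.002% P-80; ~10^6 CFU/mL inoculum; peptide two-fold serial dilutions; 18-20 h, 35° C; MIC = no visible growth, μg/mL.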

[3] = tested on: Klebsiella pneumoniae 968733; conditions: 968733
[4] = tested on: Acinetobacter baumannii 872842; conditions: 872842
[5] = tested on: Acinetobacter baumannii DSM 30008; conditions: DSM 30008
Procedure, shortened: as §1

[6] = tested on: Pseudomonas aeruginosa ATCC 27853; conditions: ATCC 27853
Procedure, shortened: as §1

[7] = tested on: Klebsiella pneumoniae SSI #3010; conditions: SSI #3010
Procedure, shortened: as §1

CC(C)C[C@@H]1NC(=O)[C@@H](Cc2ccccc2)NC(=O)[C@H](CCN)NC(=O)[C@@H](NC(=O)[C@H](CCN)NC(=O)[C@@H](CCN)NC(=O)[C@@H](NC(=O)[C@H](CCCN)NC(=O)[C@@H]2CSSC[C@H](NC(=O)[C@@H](N)Cc3c[nH]c4ccccc34)C(=O)N[C@@H](C(C)C)C(=O)N[C@@H](C)C(=O)N[C@@H](CO)C(=O)N3CCC[C@@H]3C(=O)N3CCC[C@H]3C(=O)N[C@@H](C(C)C)C(=O)N[C@@H](CO)C(=O)N[C@@H](Cc3ccc(O)cc3)C(=O)N2)[C@@H](C)O)CCNC(=O)[C@H]([C@@H](C)O)NC(=O)[C@H](CCNC(=O)[C@@H](N)CCCNC(=N)N)NC(=O)[C@H](CCN)NC1=O [Ex. 177] (H-WCVAS[dP]PVSYC[Orn]T[dDab][Dab][Dab][Dab][dF]L[Dab][Dab](Arg)T; disulfide 2-11; lactam 16-C)
Hemolysis at 100 μg/mL [1]: 1.4% | Escherichia coli 926415 MIC (Escherichia coli 926415): 2 µg/mL | Escherichia coli ATCC 25922 MIC [2]: 1 µg/mL | Klebsiella pneumoniae 968733 MIC [3]: 2 µg/mL | Acinetobacter baumannii 872842 MIC [4]: 2 µg/mL | Acinetobacter baumannii DSM 30008 MIC [5]: 1 µg/mL | Pseudomonas aeruginosa ATCC 27853 MIC [6]: 0.5 µg/mL | Klebsiella pneumoniae SSI #3010 MIC [7]: 1 µg/mL

CC(C)C[C@@H]1NC(=O)[C@@H](CC(C)C)NC(=O)[C@H](CCN)NC(=O)[C@@H](NC(=O)[C@H](CCN)NC(=O)[C@@H](NC(=O)[C@H](CCN)NC(=O)CN(C)C(=O)[C@@H]2CSSC[C@H](NC(=O)[C@@H](N)Cc3c[nH]c4ccccc34)C(=O)N[C@@H](C(C)C)C(=O)N[C@@H](C)C(=O)N[C@@H](CO)C(=O)N3CCC[C@@H]3C(=O)N3CCC[C@H]3C(=O)N[C@@H](CC(C)C)C(=O)N[C@@H](CO)C(=O)N[C@@H](Cc3ccc(O)cc3)C(=O)N2)[C@@H](C)O)CCNC(=O)[C@@H]([C@H](C)O)NC(=O)[C@H](CCN)NC(=O)[C@H](CCN)NC1=O [Ex. 178] (H-WCVAS[dP]PLSYC[Sar][Dab]T[Dab][Dab][Dab][dL]L[Dab][Dab][dT]; disulfide 2-11; lactam 16-C)
Hemolysis at 100 μg/mL [1]: <1% | Escherichia coli 926415 MIC (Escherichia coli 926415): 1 µg/mL | Escherichia coli ATCC 25922 MIC [2]: 0.5 µg/mL | Klebsiella pneumoniae 968733 MIC [3]: 8 µg/mL | Acinetobacter baumannii 872842 MIC [4]: 2 µg/mL | Acinetobacter baumannii DSM 30008 MIC [5]: 1 µg/mL | Pseudomonas aeruginosa ATCC 27853 MIC [6]: 4 µg/mL | Klebsiella pneumoniae SSI #3010 MIC [7]: 0.5 µg/mL

CC(C)C[C@@H]1NC(=O)[C@@H](CC(C)C)NC(=O)[C@H](CCN)NC(=O)[C@@H](NC(=O)[C@H](CCN)NC(=O)[C@@H](NC(=O)[C@H](CCN)NC(=O)CN(C)C(=O)[C@@H]2CSSC[C@H](NC(=O)[C@@H](N)Cc3c[nH]c4ccccc34)C(=O)N[C@@H](C(C)C)C(=O)N[C@@H](C)C(=O)N[C@@H](CO)C(=O)N3CCC[C@@H]3C(=O)N3CCC[C@H]3C(=O)N[C@@H](CC(C)C)C(=O)N[C@@H](CO)C(=O)N[C@@H](Cc3ccc(O)cc3)C(=O)N2)[C@@H](C)O)CCNC(=O)[C@H](C(C)C)NC(=O)[C@H](CCN)NC(=O)[C@H](CCN)NC1=O [Ex. 179] (H-WCVAS[dP]PLSYC[Sar][Dab]T[Dab][Dab][Dab][dL]L[Dab][Dab]V; disulfide 2-11; lactam 16-C)
Hemolysis at 100 μg/mL [1]: <1% | Escherichia coli 926415 MIC (Escherichia coli 926415): 0.125 µg/mL | Escherichia coli ATCC 25922 MIC [2]: 0.0625 µg/mL | Klebsiella pneumoniae 968733 MIC [3]: 0.5 µg/mL | Acinetobacter baumannii 872842 MIC [4]: 0.0625 µg/mL | Acinetobacter baumannii DSM 30008 MIC [5]: 0.0625 µg/mL | Pseudomonas aeruginosa ATCC 27853 MIC [6]: 1 µg/mL | Klebsiella pneumoniae SSI #3010 MIC [7]: 0.125 µg/mL

CNCC(=O)N[C@@H](Cc1c[nH]c2ccccc12)C(=O)N[C@H]1CSSC[C@@H](C(=O)N(C)CC(=O)N[C@H](C(=O)N[C@@H](CCN)C(=O)N[C@@H](CCN)C(=O)N[C@H]2CCNC(=O)[C@H]([C@@H](C)O)NC(=O)[C@H](CCN)NC(=O)[C@H](CCN)NC(=O)[C@H](CC(C)C)NC(=O)[C@@H](CC(C)C)NC(=O)[C@H](CCN)NC2=O)[C@@H](C)O)NC(=O)[C@H](Cc2ccc(O)cc2)NC(=O)[C@H](CO)NC(=O)[C@H](CC(C)C)NC(=O)[C@@H]2CCCN2C(=O)[C@H]2CCCN2C(=O)[C@H](CO)NC(=O)[C@H](C)NC(=O)[C@H](C(C)C)NC1=O [Ex. 184] (H-[Sar]WCVAS[dP]PLSYC[Sar]T[Dab][Dab][Dab][Dab][dL]L[Dab][Dab]T; disulfide 3-12; lactam 17-C)
Hemolysis at 100 μg/mL [1]: <1% | Escherichia coli 926415 MIC (Escherichia coli 926415): 1 µg/mL | Escherichia coli ATCC 25922 MIC [2]: 0.5 µg/mL | Klebsiella pneumoniae 968733 MIC [3]: 1 µg/mL | Acinetobacter baumannii 872842 MIC [4]: 1 µg/mL | Acinetobacter baumannii DSM 30008 MIC [5]: 0.5 µg/mL | Pseudomonas aeruginosa ATCC 27853 MIC [6]: 0.75 µg/mL | Klebsiella pneumoniae SSI #3010 MIC [7]: 0.5 µg/mL

CNCC(=O)N[C@@H](Cc1c[nH]c2ccccc12)C(=O)N[C@H]1CSSC[C@@H](C(=O)N(C)CC(=O)N[C@@H](CCN)C(=O)N[C@H](C(=O)N[C@@H](CCN)C(=O)N[C@H]2CCNC(=O)[C@H]([C@@H](C)O)NC(=O)[C@H](CCN)NC(=O)[C@H](CCN)NC(=O)[C@H](CC(C)C)NC(=O)[C@@H](CC(C)C)NC(=O)[C@H](CCN)NC2=O)[C@@H](C)O)NC(=O)[C@H](Cc2ccc(O)cc2)NC(=O)[C@H](CO)NC(=O)[C@H](CC(C)C)NC(=O)[C@@H]2CCCN2C(=O)[C@H]2CCCN2C(=O)[C@H](CCN)NC(=O)[C@H](C)NC(=O)[C@H](C(C)C)NC1=O [Ex. 185] (H-[Sar]WCVA[Dab][dP]PLSYC[Sar][Dab]T[Dab][Dab][Dab][dL]L[Dab][Dab]T; disulfide 3-12; lactam 17-C)
Hemolysis at 100 μg/mL [1]: 1% | Escherichia coli 926415 MIC (Escherichia coli 926415): 2 µg/mL | Escherichia coli ATCC 25922 MIC [2]: 0.25 µg/mL | Klebsiella pneumoniae 968733 MIC [3]: 8 µg/mL | Acinetobacter baumannii 872842 MIC [4]: 1 µg/mL | Acinetobacter baumannii DSM 30008 MIC [5]: 0.25 µg/mL | Pseudomonas aeruginosa ATCC 27853 MIC [6]: 1 µg/mL | Klebsiella pneumoniae SSI #3010 MIC [7]: 1 µg/mL

CNCC(=O)N[C@@H](CC(C)C)C(=O)N[C@H]1CSSC[C@@H](C(=O)N(C)CC(=O)N[C@@H](CCN)C(=O)N[C@H](C(=O)N[C@@H](CCN)C(=O)N[C@H]2CCNC(=O)[C@H]([C@@H](C)O)NC(=O)[C@H](CCN)NC(=O)[C@H](CCN)NC(=O)[C@H](CC(C)C)NC(=O)[C@@H](CC(C)C)NC(=O)[C@H](CCN)NC2=O)[C@@H](C)O)NC(=O)[C@H](Cc2ccc(O)cc2)NC(=O)[C@H](CO)NC(=O)[C@H](CC(C)C)NC(=O)[C@@H]2CCCN2C(=O)[C@H]2CCCN2C(=O)[C@H](Cc2ccc(O)cc2)NC(=O)[C@H](C)NC(=O)[C@H](C(C)C)NC1=O [Ex. 186] (H-[Sar]LCVAY[dP]PLSYC[Sar][Dab]T[Dab][Dab][Dab][dL]L[Dab][Dab]T; disulfide 3-12; lactam 17-C)
Hemolysis at 100 μg/mL [1]: <1% | Escherichia coli 926415 MIC (Escherichia coli 926415): 0.25 µg/mL | Escherichia coli ATCC 25922 MIC [2]: 0.125 µg/mL | Klebsiella pneumoniae 968733 MIC [3]: 0.5 µg/mL | Acinetobacter baumannii 872842 MIC [4]: 0.0625 µg/mL | Acinetobacter baumannii DSM 30008 MIC [5]: 0.1251 µg/mL | Pseudomonas aeruginosa ATCC 27853 MIC [6]: 0.25 µg/mL | Klebsiella pneumoniae SSI #3010 MIC [7]: 0.125 µg/mL

CNCC(=O)N[C@@H](Cc1c[nH]c2ccccc12)C(=O)N[C@H]1CSSC[C@@H](C(=O)N(C)CC(=O)N[C@@H](CCN)C(=O)N[C@H](C(=O)N[C@@H](CCN)C(=O)N[C@H]2CCNC(=O)[C@H]([C@@H](C)O)NC(=O)[C@H](CCNC(=O)[C@@H](N)CCCNC(=N)N)NC(=O)[C@H](CCN)NC(=O)[C@H](CC(C)C)NC(=O)[C@@H](CC(C)C)NC(=O)[C@H](CCN)NC2=O)[C@@H](C)O)NC(=O)[C@H](Cc2ccc(O)cc2)NC(=O)[C@H](CO)NC(=O)[C@H](CC(C)C)NC(=O)[C@@H]2CCCN2C(=O)[C@H]2CCCN2C(=O)[C@H](CO)NC(=O)[C@H](C)NC(=O)[C@H](C(C)C)NC1=O [Ex. 187] (H-[Sar]WCVAS[dP]PLSYC[Sar][Dab]T[Dab][Dab][Dab][dL]L[Dab][Dab](Arg)T; disulfide 3-12; lactam 17-C)
Hemolysis at 100 μg/mL [1]: <1% | Escherichia coli 926415 MIC (Escherichia coli 926415): 2 µg/mL | Escherichia coli ATCC 25922 MIC [2]: 0.125 µg/mL | Klebsiella pneumoniae 968733 MIC [3]: 1 µg/mL | Acinetobacter baumannii 872842 MIC [4]: 1 µg/mL | Acinetobacter baumannii DSM 30008 MIC [5]: 0.125 µg/mL | Pseudomonas aeruginosa ATCC 27853 MIC [6]: 1 µg/mL | Klebsiella pneumoniae SSI #3010 MIC [7]: 0.125 µg/mL
